pIC50: −log10 of the molar value.

In this test the target is T1, Thyrotropin-releasing hormone receptor 2 (Rattus norvegicus, UniProt A6IZR3).
T1 sequence (A6IZR3 whole entry): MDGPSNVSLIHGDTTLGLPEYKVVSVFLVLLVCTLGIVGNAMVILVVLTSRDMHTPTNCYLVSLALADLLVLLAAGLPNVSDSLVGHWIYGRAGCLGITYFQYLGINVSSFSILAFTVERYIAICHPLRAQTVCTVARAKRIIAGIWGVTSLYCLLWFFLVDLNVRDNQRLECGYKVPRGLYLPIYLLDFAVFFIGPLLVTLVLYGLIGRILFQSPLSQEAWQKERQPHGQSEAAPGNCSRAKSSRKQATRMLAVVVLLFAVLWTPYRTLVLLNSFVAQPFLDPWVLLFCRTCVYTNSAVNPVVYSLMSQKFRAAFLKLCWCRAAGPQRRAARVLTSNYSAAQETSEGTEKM
In words: Displacement of [3H]3-methylhistidyl-TRH from rat recombinant TRHR2 expressed in […] cells. In kind it is cell-based. In general terms: Displacement assays read how much labelled ligand stays bound in the presence of the test substance.
In the case of `CC(=O)OC[C@]12CCC[C@](C)(CO)[C@@H]1CC[C@@]1(C)c3cocc3CC[C@H]21`, the pIC50 was 4.64.

Consider `CC(=O)OC[C@@]1(C)CCC[C@]2(COC(C)=O)[C@H]3CCc4cocc4[C@]3(C)CC[C@@H]12`, for which the pIC50 was 3.40.

On to `CC(=O)OC[C@@]1(C)CCC[C@]2(CO)[C@H]3CCc4cocc4[C@]3(C)CC[C@@H]12`, for which the pIC50 was 4.15.

Turning to `C[C@]1(CO)CCC[C@]2(CO)[C@H]3CCc4cocc4[C@]3(C)CC[C@@H]12`, the pIC50 was 3.22.

On to `CC1(C)CCC[C@]2(C)[C@H]3CCc4cocc4[C@]3(C)CC[C@@H]12`, for which the pIC50 was 3.00.

As to `NC(=O)[C@@H]1CCCN1C(=O)[C@H](Cc1cnc[nH]1)NC(=O)[C@@H]1CCC(=O)N1` [PROTIRELIN], the pIC50 is 7.64.

What is called pIC50 is the negative decadic logarithm of the IC50, by convention in mol/L.

(Values after ChEMBL document CHEMBL1150255, “Spongian diterpenes with thyrotropin releasing hormone receptor 2 binding affinity from Spongia sp” (J Nat Prod, 2008).)
